Results: patent US12029751B2, “Therapeutic agent for nervous system disease” (OSAKA UNIVERSITY, priority 2017, dated 2024)

Key:
[1] = test system: Mouse macrophage cell line J774A.1; assay: Western blot of M1 markers (IL-1β, iNOS) and M2 markers (Arg1, CD206) in macrophage cell line; format: cell-based; conditions: for Arg1 protein / GAPDH protein / CD206 protein / GAPDH protein: 72 hours; for IL-1β protein / GAPDH protein / iNOS protein / GAPDH protein: 24 hours
Procedure: Mouse macrophage cell line J774A.1 (JCRB9108) was purchased from JCRB Cell Bank (Laboratory of Cell Cultures), Osaka, Japan. Cells were cultured in DMEM containing 10% FBS and 1% penicillin/streptomycin.
(§1) The J774A.1 cells (Example 5-1) were seeded on a dish having a diameter of 6 cm. After 4 days, proteins were collected using a cell lysis buffer containing a cocktail of protease inhibitors. The protein concentration was measured by BCA assay. Then, 50 μg of each sample was subjected to SDS-PAGE, and the electrophoresed proteins were transferred to a polyvinylidene difluoride membrane. The membrane was blocked with a blocking buffer for 1 hour, and then the proteins were allowed to react with primary antibodies at 4° C. overnight. The proteins were further allowed to react with a secondary antibody at room temperature for 1 hour and detected using ECL Western Blotting Detection System. To detect the M1 markers iNOS and IL-1β, lipopolysaccharide (LPS) (100 ng/ml) and methylcobalamin were added at 24 hours before collecting the proteins. To detect the M2 markers Arg1 and CD206, IL-4 (20 ng/ml) and methylcobalamin were added at 72 hours before collecting the proteins.
The primary antibodies used were a rabbit anti-IL-1β polyclonal antibody (Santa Cruz), a rabbit anti-iNOS monoclonal antibody (Abeam), a rabbit anti-Arg1 polyclonal antibody (Santa Cruz), and a rabbit anti-CD206 monoclonal antibody (Abeam). The secondary antibody used was anti-rabbit IgG, horseradish peroxidase-linked whole antibody from donkey (GE Healthcare Life Sciences).

Akt-mTOR pathway = assay: Western blot of Akt, 4EBP1 and S6K phosphorylation (mechanism of macrophage induction); format: cell-based, mouse; conditions: 30 minutes
Procedure: as §1
The mechanism of the macrophage induction (Example 5) by methylcobalamin was analyzed. Specifically, the analysis was carried out as follows. At 30 minutes after IL-4 and methylcobalamin (100 nM and 1 mM) were added, activation of Akt, 4EBP1, and S6K in the Akt-mTOR pathway (one of the major signaling pathways that induce M2 gene expression) was evaluated by Western blot. In the pathway, Akt phosphorylation occurs in response to an upstream signal, and 4EBP1 phosphorylation and S6K phosphorylation further occur through mTORC1 in the downstream. The S6K phosphorylation provides a negative feedback to the upstream of the signaling pathway. Western blot was performed as in Example 5-2, except that IL-4 (20 ng/ml), methylcobalamin, and RAD001 (200 nM) were added at 30 minutes before the proteins were collected, and the primary antibodies for detection were changed.

[2] = IL-4 20 ng/ml + MeCbl 100 nM, listed as methylcobalamin
[3] = IL-4 20 ng/ml + MeCbl 1 mM + RAD001 (200 nM)
[4] = IL-4 20 ng/ml + MeCbl 1 mM, listed as methylcobalamin

C/C1=C2/[N-][C@H]([C@H](CC(N)=O)[C@@]2(C)CCC(=O)NC[C@@H](C)OP(=O)([O-])O[C@H]2[C@@H](O)[C@@H](n3cnc4cc(C)c(C)cc43)O[C@@H]2CO)[C@]2(C)N=C(/C(C)=C3N=C(/C=C4N=C1[C@@H](CCC(N)=O)C\4(C)C)[C@@H](CCC(N)=O)[C@]\3(C)CC(N)=O)[C@@H](CCC(N)=O)[C@]2(C)CC(N)=O.[CH3-].[Co+3] [MeCbl, methylcobalamin]
Arg1 protein / GAPDH protein ([1]; IL-4 20 ng/ml + MeCbl 1 nM): 1.42
CD206 protein / GAPDH protein ([1]; IL-4 20 ng/ml + MeCbl 1 nM): 1.28
Arg1 protein / GAPDH protein ([1]; IL-4 20 ng/ml + MeCbl 10 nM): 1.60
CD206 protein / GAPDH protein ([1]; IL-4 20 ng/ml + MeCbl 10 nM): 1.49
Arg1 protein / GAPDH protein ([1]; IL-4 20 ng/ml + MeCbl 100 nM): 1.93
CD206 protein / GAPDH protein ([1]; IL-4 20 ng/ml + MeCbl 100 nM): 1.53
Arg1 protein / GAPDH protein [1, 2]: significantly increased
Arg1 protein / GAPDH protein ([1]; IL-4 20 ng/ml + MeCbl 1 μM): 1.65
CD206 protein / GAPDH protein ([1]; IL-4 20 ng/ml + MeCbl 1 μM): 1.58
Arg1 protein / GAPDH protein ([1]; IL-4 20 ng/ml + MeCbl 1 μM, listed as methylcobalamin): significantly increased
Arg1 protein / GAPDH protein ([1]; IL-4 20 ng/ml + MeCbl 10 μM): 1.26
CD206 protein / GAPDH protein ([1]; IL-4 20 ng/ml + MeCbl 10 μM): 1.08
Arg1 protein / GAPDH protein ([1]; IL-4 20 ng/ml + MeCbl 100 μM): 0.92
CD206 protein / GAPDH protein ([1]; IL-4 20 ng/ml + MeCbl 100 μM): 1.12
Arg1 protein / GAPDH protein ([1]; IL-4 20 ng/ml + MeCbl 1 mM): 0.54
CD206 protein / GAPDH protein ([1]; IL-4 20 ng/ml + MeCbl 1 mM): 0.78
methylcobalamin concentration at peaks of the CD206 levels ([1]; IL-4 + methylcobalamin, Western blot): 100 to 1000 nM
IL-1β protein / GAPDH protein ([1]; LPS 100 ng/ml + MeCbl 1 nM): 0.91
iNOS protein / GAPDH protein ([1]; LPS 100 ng/ml + MeCbl 1 nM): 0.87
IL-1β protein / GAPDH protein ([1]; LPS 100 ng/ml + MeCbl 10 nM): 0.68
iNOS protein / GAPDH protein ([1]; LPS 100 ng/ml + MeCbl 10 nM): 0.56
IL-1β protein / GAPDH protein ([1]; LPS 100 ng/ml + MeCbl 100 nM): 0.46
iNOS protein / GAPDH protein ([1]; LPS 100 ng/ml + MeCbl 100 nM): 0.15
IL-1β protein / GAPDH protein ([1]; LPS 100 ng/ml + MeCbl 100 nM, listed as methylcobalamin): significantly decreased
IL-1β protein / GAPDH protein ([1]; LPS 100 ng/ml + MeCbl 1 μM): 0.46
iNOS protein / GAPDH protein ([1]; LPS 100 ng/ml + MeCbl 1 μM): 0.27
IL-1β protein / GAPDH protein ([1]; LPS 100 ng/ml + MeCbl 10 μM): 0.60
iNOS protein / GAPDH protein ([1]; LPS 100 ng/ml + MeCbl 10 μM): 0.33
IL-1β protein / GAPDH protein ([1]; LPS 100 ng/ml + MeCbl 100 μM): 0.75
iNOS protein / GAPDH protein ([1]; LPS 100 ng/ml + MeCbl 100 μM): 0.45
IL-1β protein / GAPDH protein ([1]; LPS 100 ng/ml + MeCbl 1 mM): 1.26
iNOS protein / GAPDH protein ([1]; LPS 100 ng/ml + MeCbl 1 mM): 0.53
iNOS level (Western blot) as compared with LPS alone ([1]; LPS + 100 nM to 10 μM methylcobalamin): significantly decreased
p-4EBP1/4EBP1 (Akt-mTOR pathway; IL-4 20 ng/ml + MeCbl 100 nM): 4.94
p-Akt/Akt (Akt-mTOR pathway; IL-4 20 ng/ml + MeCbl 100 nM): 3.58
p-S6K/S6K (Akt-mTOR pathway; IL-4 20 ng/ml + MeCbl 100 nM): 2.65
p-4EBP1/4EBP1 (Akt-mTOR pathway; [2]): enhanced
p-S6K/S6K (Akt-mTOR pathway; [2]): enhanced
p-4EBP1/4EBP1 (Akt-mTOR pathway; [3]): 2.78
p-Akt/Akt (Akt-mTOR pathway; [3]): 3.78
p-S6K/S6K (Akt-mTOR pathway; [3]): 0.33
p-4EBP1/4EBP1 (Akt-mTOR pathway; IL-4 20 ng/ml + MeCbl 1 mM): 6.08
p-Akt/Akt (Akt-mTOR pathway; IL-4 20 ng/ml + MeCbl 1 mM): 2.59
p-S6K/S6K (Akt-mTOR pathway; IL-4 20 ng/ml + MeCbl 1 mM): 3.12
p-4EBP1/4EBP1 (Akt-mTOR pathway; [4]): activated
p-Akt/Akt (Akt-mTOR pathway; [4]): decreased
p-S6K/S6K (Akt-mTOR pathway; [4]): activated
